Marks after values point to notes of the source that are not given here.
Experiments:
Assay type in all cases: cell-based
Caco-2 cells = assay: cells; conditions: Homo sapiens, Caco-2, read-out: mean IC50 Caco-2 ± SD
HepG-2 cells = assay: cells; conditions: Homo sapiens, HepG2, read-out: mean IC50 HepG-2 ± SD
MCF-7 cells = assay: cells; conditions: Homo sapiens, MCF7, read-out: mean IC50 MCF-7 ± SD
Vero cells = assay: cells; conditions: Chlorocebus sabaeus, read-out: mean IC50 Vero cells
eIF4E = eIF4E (Homo sapiens, UniProt P06730)
Chain of eIF4E (P06730 whole entry): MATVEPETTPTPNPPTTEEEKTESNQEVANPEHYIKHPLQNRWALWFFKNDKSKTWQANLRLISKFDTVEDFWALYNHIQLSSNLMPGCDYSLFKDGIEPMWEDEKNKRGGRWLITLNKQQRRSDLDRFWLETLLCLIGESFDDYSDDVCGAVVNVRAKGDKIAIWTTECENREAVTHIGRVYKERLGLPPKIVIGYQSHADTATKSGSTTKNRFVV

p-eIF4E = p-eIF4E (Homo sapiens, UniProt P06730)
Chain of p-eIF4E (P06730 whole entry): as above

β-actin = tested on: β-actin

Structure (SMILES)	IC50 (Caco-2 cells) [µM]	IC50 (HepG-2 cells) [µM]	IC50 (MCF-7 cells) [µM]	IC50 (Vero cells) [µM]	change in fold, eIF4E (eIF4E)	decrease in eIF4E protein (eIF4E) [%]	mean protein, eIF4E (eIF4E) [ng/mL]	protein ratio normalized to reference protein, eIF4E (eIF4E)	change in fold, p-eIF4E (p-eIF4E)	inhibition (decrease) of p-eIF4E expression (p-eIF4E) [%]	mean protein, p-eIF4E (p-eIF4E) [ng/mL]	protein ratio normalized to reference protein, p-eIF4E (p-eIF4E)	mean protein, β-actin (β-actin) [ng/mL]	protein ratio normalized to reference protein, β-actin (β-actin)
CO[C@H]1C[C@@H]2CC[C@@H](C)[C@@](O)(O2)C(=O)C(=O)N2CCCC[C@H]2C(=O)O[C@H]([C@H](C)C[C@@H]2CC[C@@H](O)[C@H](OC)C2)CC(=O)[C@H](C)/C=C(\C)[C@@H](O)[C@@H](OC)C(=O)[C@H](C)C[C@H](C)/C=C/C=C/C=C/1C [Rapamycin]	27.7 ± 1.63	47.6 ± 3.83	5.62 ± 0.24	> 100										
NC(=O)c1ncn([C@@H]2O[C@H](CO)[C@@H](O)[C@H]2O)n1 [Ribavirin]	9.78 ± 0.94	63.9 ± 3.43	10.2 ± 0.15	> 100	0.68	32.1	2.520	42.6*	0.47	53	2.190	35.5*	3.118	72.2

From PMC10586017 (ACS Omega, 2023)
